Results from patent publication US7462605B2, “Phosphoramidate compounds and methods of use” (Celmed Oncology (USA), Inc., priority 2002, dated 2008).
Where two headings read alike, the source gives them in different places.

What was measured:
[1] = test system: C/HT1080 cells; experiment: alamarBlue cytotoxicity, control-transfected HT1080; type: cell-based, human; conditions: C/HT1080, TS Level 100%
Experimental: (§1) Cell lines and transfection. HT1080 cells were grown in PRM11640 medium supplemented with 10% fetal calf serum, and transfected with GFP-TS expression vector. 48 hours after, transfection cells were tripsinized and replated in culture medium containing 750 μg/ml G418. After selection with G418 for two weeks, surviving cells were sorted based upon fluorescence expression. One clone with higher fluorescence expression (named as TSH/HT1080) and one clone with lower fluorescence expression (named as TSL/HT1080) were selected and expanded into cells lines. The stable HT1080 cells transfected with pEGFP-C3 were used as control.
(§2) Construction of GFP-TS expression vector. […] The cDNA was cloned into HindIII and KpnI sites of mammalian expression vector pEGFP-C3 (Clontech Laboratories. Inc., Palo Alto, Calif.), in-frame with GFP sequence. The cDNA insert was confirmed by DNA sequencing.
(§3) Growth Inhibition Studies. Cells growing exponentially were transferred to 384-well flat bottom tissue culture plates. All cell types were plated at a density of 500 cells per well in 25 μL of complete medium (RPMI 1640+10% fetal bovine serum+antibiotics/antimycotics). […] After 4 hours incubation at 37° C., fluorescence was monitored at 535 nm excitation and 595 nm emission.
(§4) Concentration vs. relative fluorescence units (RFU) were plotted, and sigmoid curves were fit using the Hill equation.

[2] = test system: TSL/HT1080 cells; experiment: alamarBlue cytotoxicity, HT1080 expressing low GFP-TS; type: cell-based, human; conditions: TSL/HT1080, TS Level 409%
Experimental: as §1, §2, §3, §4

[3] = test system: TSH/HT1080 cells; experiment: alamarBlue cytotoxicity, HT1080 expressing high GFP-TS; type: cell-based, human; conditions: second line printed TSL/HT1080, TS Level 702%
Experimental: as §1, §2, §3, §4

[4] = test system: CCD18co normal colon epithelial cells; experiment: Thymidine rescue, alamarBlue cytotoxicity; type: cell-based, human
Excerpt: An additional approach was taken to understanding whether NB1011 might interfere with cell growth primarily by inactivating TS. This approach is based upon thymidine rescue of TS-blocked cells. […] For this reason, they survive only by scavenger mechanisms. One of the important scavenger mechanisms is utilization of extracellular thymidine. Thymidine incorporated by target cells can be converted to dTMP, usually by thymidine kinase, and thus continue DNA synthesis. Other pathways for use of exogenous thymidine have also been described If an important mechanism for NB1011 activity is via inhibition of endogenous TS, then the cytotoxicity should be relieved when thymidine is added to the cell culture media. For this experiment, a number of tumor cell lines were screened for their sensitivity to Tomudex and 5FdUrd, and ability to be rescued from these agents via thymidine supplementation. […] Experiments were carried out as described by (Patterson, et al. (1998)) with or without 10 μM thymidine, except that the alamarBlue assay was employed to determine cytotoxicity.

[5] = test system: CCD18co normal colon epithelial cells; experiment: alamarBlue growth inhibition, CCD18co; type: cell-based, human; conditions: Homo sapiens, CCD-18Co; Normal Cells: CCD1800 (Colon); alamarBlue, 120 hours
Experimental: (§5) Growth Inhibition Studies. Cells growing exponentially were transferred to 384-well flat bottom tissue culture plates. All cell types were plated at a density of 500 cells per well in 25 μL of complete medium (RPMI 1640+10% fetal bovine serum+antibiotics/antimycotics). After 24 hours (day 0), 25 μL of complete medium containing the experimental compounds over the dose range of 10^ñ3 to 10^ñ10 M were added in triplicate. […] 5 μL of the redox indicator, alamarBlue, was added to each well (10% v/v). After 4 hours incubation at 37° C., fluorescence was monitored at 535 nm excitation and 595 nm emission.
as §4

[6] = test system: DET551 (Skin) normal cells; experiment: alamarBlue growth inhibition, DET551; type: cell-based, human; conditions: Homo sapiens, 120 hours
Experimental: as §5, §4

[7] = test system: NHDF (Skin) normal cells; experiment: alamarBlue growth inhibition, NHDF; type: cell-based, human; conditions: Homo sapiens, 120 hours
Experimental: as §5, §4

[8] = test system: H527 (Skin) normal cells; experiment: alamarBlue growth inhibition, H527; type: cell-based, human; conditions: Homo sapiens, 120 hours
Experimental: as §5, §4

[9] = test system: W138 (Lung) normal cells; experiment: alamarBlue growth inhibition, W138; type: cell-based, human; conditions: Homo sapiens, 120 hours
Experimental: as §5, §4

[10] = test system: MRC9 (Lung) normal cells; experiment: alamarBlue growth inhibition, MRC9; type: cell-based, human; conditions: Homo sapiens, 120 hours
Experimental: as §5, §4

[11] = test system: NHLF (Lung) normal cells; experiment: alamarBlue growth inhibition, NHLF; type: cell-based, human; conditions: Homo sapiens, 120 hours
Experimental: as §5, §4

[12] = test system: NHA (Brain) normal cells; experiment: alamarBlue growth inhibition, NHA; type: cell-based, human; conditions: Homo sapiens, 120 hours
Experimental: as §5, §4

[13] = test system: NHOST (Bone) normal cells; experiment: alamarBlue growth inhibition, NHOST; type: cell-based, human; conditions: Homo sapiens, 120 hours
Experimental: as §5, §4

[14] = test system: NPRSC (Prostate) normal cells; experiment: alamarBlue growth inhibition, NPRSC; type: cell-based, human; conditions: Homo sapiens, 120 hours
Experimental: as §5, §4

[15] = test system: NHEPF (Liver) normal cells; experiment: alamarBlue growth inhibition, NHEPF; type: cell-based, human; conditions: Homo sapiens, 120 hours
Experimental: as §5, §4

[16] = test system: H630R10 5FU-resistant colon tumor cells; experiment: alamarBlue growth inhibition, H630R10; type: cell-based, human; conditions: Homo sapiens; Tumor Cells: H630R10 (Colon); alamarBlue, 120 hours; read-out: IC50
Experimental: as §5, §4

[17] = test system: HT1080 (Colon) tumor cells; experiment: alamarBlue growth inhibition, HT1080; type: cell-based, human; conditions: Homo sapiens, HT-1080, 120 hours
Experimental: as §5, §4

[18] = test system: COLO320 (Colon) tumor cells; experiment: alamarBlue growth inhibition, COLO320; type: cell-based, human; conditions: Homo sapiens, COLO 320, 120 hours
Experimental: as §5, §4

[19] = test system: COLO205 (Colon) tumor cells; experiment: alamarBlue growth inhibition, COLO205; type: cell-based, human; conditions: Homo sapiens, COLO 205, 120 hours
Experimental: as §5, §4

[20] = test system: SW620 (Colon) tumor cells; experiment: alamarBlue growth inhibition, SW620; type: cell-based, human; conditions: Homo sapiens, SW-620, 120 hours
Experimental: as §5, §4

[21] = test system: SKCO1 (Colon) tumor cells; experiment: alamarBlue growth inhibition, SKCO1; type: cell-based, human; conditions: Homo sapiens, SK-CO-1, 120 hours
Experimental: as §5, §4

[22] = test system: HCTC (Colon) tumor cells; experiment: alamarBlue growth inhibition, HCTC; type: cell-based, human; conditions: Homo sapiens, 120 hours
Experimental: as §5, §4

[23] = test system: MDAMB361 (Breast) tumor cells; experiment: alamarBlue growth inhibition, MDAMB361; type: cell-based, human; conditions: Homo sapiens, MDA-MB-361, 120 hours
Experimental: as §5, §4

[24] = test system: MDAMB468 (Breast) tumor cells; experiment: alamarBlue growth inhibition, MDAMB468; type: cell-based, human; conditions: Homo sapiens, MDA-MB-468, 120 hours
Experimental: as §5, §4

[25] = test system: SW527 (Breast) tumor cells; experiment: alamarBlue growth inhibition, SW527; type: cell-based, human; conditions: Homo sapiens, 120 hours
Experimental: as §5, §4

[26] = test system: NCI H520 (Lung) tumor cells; experiment: alamarBlue growth inhibition, NCI H520; type: cell-based, human; conditions: Homo sapiens, 120 hours
Experimental: as §5, §4

[27] = test system: SKLU1 (Lung) tumor cells; experiment: alamarBlue growth inhibition, SKLU1; type: cell-based, human; conditions: Homo sapiens, SK-LU-1, 120 hours
Experimental: as §5, §4

[28] = test system: SOAS2 (Bone) tumor cells; experiment: alamarBlue growth inhibition, SOAS2; type: cell-based, human; conditions: Homo sapiens, 120 hours
Experimental: as §5, §4

[29] = test system: PANC1 (Pancreas) tumor cells; experiment: alamarBlue growth inhibition, PANC1; type: cell-based, human; conditions: Homo sapiens, PANC-1, 120 hours
Experimental: as §5, §4

[30] = test system: SKOV3 (Ovary) tumor cells; experiment: alamarBlue growth inhibition, SKOV3; type: cell-based, human; conditions: Homo sapiens, SK-OV-3, 120 hours
Experimental: as §5, §4

[31] = test system: PC3 (Prostate) tumor cells; experiment: alamarBlue growth inhibition, PC3; type: cell-based, human; conditions: Homo sapiens, 120 hours
Experimental: as §5, §4

[32] = test system: HEPG2 (Liver) tumor cells; experiment: alamarBlue growth inhibition, HEPG2; type: cell-based, human; conditions: Homo sapiens, 120 hours
Experimental: as §5, §4

[33] = test system: SKHEP1 (Liver) tumor cells; experiment: alamarBlue growth inhibition, SKHEP1; type: cell-based, human; conditions: Homo sapiens, SK-HEP1, 120 hours
Experimental: as §5, §4

[34] = test system: A431 (Skin) tumor cells; experiment: alamarBlue growth inhibition, A431; type: cell-based, human; conditions: Homo sapiens, A-431, 120 hours
Experimental: as §5, §4

[35] = test system: MCIxc (Brain) tumor cells; experiment: alamarBlue growth inhibition, MCIxc; type: cell-based, human; conditions: Homo sapiens, MC-IXC, 120 hours
Experimental: as §5, §4

[36] = test system: normal and tumor cell types; experiment: cells; conditions: Homo sapiens
Experimental: Growth Inhibition Studies. Cells growing exponentially were transferred to 384-well flat bottom tissue culture plates. All cell types were plated at a density of 500 cells per well in 25 μL of complete medium (RPMI 1640+10% fetal bovine serum+antibiotics/antimycotics). After 24 hours (day 0), 25 μL of complete medium containing the experimental compounds over the dose range of 10^ñ3 to 10^ñ10 M were added in triplicate. Drug exposure time was 120 hours (day 5), after which growth inhibition was assayed. 5 μL of the redox indicator, alamarBlue, was added to each well (10% v/v). After 4 hours incubation at 37° C., fluorescence was monitored at 535 nm excitation and 595 nm emission.
as §4
Assays were carried out as described in Methods, above. Therapeutic index is calculated as the ratio of the average IC50 for normal cells to the average IC50 for tumor cells. All assays were done at least three times.

[37] = H630-10 5-FU resistant colon carcinoma xenografts in athymic mice; conditions: female, CD-1 (nu/nu) athymic, mouse, in vivo, ip
Experimental: Tumor measurements began on the first day of treatment (Day 1).
Following cell expansion ex-vivo H630-10 were injected subcutaneously (S.Q.) at 1.5×10^7 cells/tumor in the mid-back region of 4-6 week old, female, CD-1 (nu/nu), athymic mice (Charles River Laboratories, Wilmington, Mass.). Tumor volumes, calculated as the product of length, width, and depth, were monitored twice weekly by serial micrometer measurements by a single observer. Six animals were randomly assigned to each treatment group and statistical tests were performed (single-factor ANOVA) to assure uniformity in starting tumor volumes between treatment and control groups at the beginning of the experiment. […] To assure accurate dosing, drug doses were individualized based upon animal weights determined immediately prior to each injection. […] Differences in day 25 xenograft volumes between groups were analyzed by single-factor ANOVA of the log transformed tumor volume data.

[38] = test system: MCF7TDX cells; experiment: 384-well interaction screening assay (alamarBlue) with NB1011, MCF7TDX; type: cell-based, human; conditions: drug combined with NB1011, MCF7TDX, 384-well alamarBlue, 5-day
Experimental: Cell lines: Normal human colon epithelial cells (CCD18co) and skin fibroblasts (Det55 1) were purchased from ATCC (Rockville,Md.). MCF7TDX, human breast carcinoma cells resistant to 2 μM Tomudex were obtained from Dr. Patrick Johnston, Queens University, Belfast. […] The MCF7TDX and the H630R10 cell lines have been previously described in Drake, J. C. et al. (1996) and Copur, S. et al. (1995) respectively.
Culture Conditions: All cells were cultured under standard conditions of 37° C., 95% humidified air, 5% CO2 in RPMI 1640 culture medium containing 10% fetal calf serum (Life Technologies) and penicillin/streptomycin/fungizone. […] The medium was renewed or the cells were passaged about every three days to maintain optimal growth conditions. […]
Cytotoxicity Studies: 384-well interaction screening assay. […] Following a 5-day incubation, the redox indicator dye, alamarBlue (AccuMed International, Westlake, Ohio) was added to each well at a 10% v/v ratio, and fluorescence was monitored at 535 excitation, 595 emission. Cytotoxic effect levels and drug interactions were assessed by the combination index method (Chou, T. C. and Talalay, P. (1984) and Bible, K. C. et al. (1997)), described briefly below. […] Sigmoid curves were fit according to the Hill inhibitory Emax model, and IC50 calculated as the average of three or more separate determinations. […]

O=c1[nH]c(=O)n([C@H]2C[C@H](O)[C@@H](CO)O2)cc1F [FUDR]
IC50 [1]: < 0.1 µM | IC50 [2]: 2.2 µM | IC50 [3]: 3.1 µM | IC50 ([4]; in the presence of 10 μM thymidine): > 5.9 µM | IC50 ([4]; without thymidine): < 0.01 µM

O=c1[nH]cc(F)c(=O)[nH]1 [5FU, 5-fluorouracil]
IC50 [5]: 2 µM | IC50 [6]: 0.8 µM | IC50 [7]: 0.8 µM | IC50 [8]: 1.6 µM | IC50 [9]: 1 µM | IC50 [10]: 1.1 µM | IC50 [11]: 0.9 µM | IC50 [12]: 0.9 µM | IC50 [13]: 4.7 µM | IC50 [14]: 1.7 µM | IC50 [15]: 1.7 µM | IC50 [16]: 41.6 µM | IC50 [17]: 0.8 µM | IC50 [18]: 1.5 µM | IC50 [19]: 1.3 µM | IC50 [20]: 4.6 µM | IC50 [21]: 1.4 µM | IC50 [22]: 2.8 µM | IC50 [23]: 5 µM | IC50 [24]: 4.4 µM | IC50 [25]: 4.3 µM | IC50 [26]: 0.6 µM | IC50 [27]: 7.9 µM | IC50 [28]: 1.4 µM | IC50 [29]: 1.9 µM | IC50 [30]: 3 µM | IC50 [31]: 0.9 µM | IC50 [32]: 22.8 µM | IC50 [33]: 1.7 µM | IC50 [34]: 0.2 µM | IC50 [35]: 1.2 µM | IC50 ([36]; read-out: IC50 (μM), Average, average of the 11 normal cell types): 1.6 µM | IC50 ([36]; read-out: IC50 (μM), Average, average of the 21 tumor cell lines): 5.3 µM | MTD at 5 days [37]: 15 mg/kg

N.N.[Cl][Pt][Cl] [Cisplatin]
Combination Index ± s.e.m. [38]: 1.51 ± 0.35

CCc1c2c(nc3ccc(OC(=O)N4CCC(N5CCCCC5)CC4)cc13)-c1cc3c(c(=O)n1C2)COC(=O)[C@]3(O)CC [Irinotecan]
Combination Index ± s.e.m. [38]: 1.36 ± 0.38
